Key:
Conditions in all cases: main component drawn
S. aureus DSM 20231 = assay: Bliss interaction score (quartile over a dose matrix) (fitness difference); higher = more antagonism (negative = synergy)
Summary of the method: (§1)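 Quartiles of the Bliss score were taken over technical, biological and donor/recipient replicates. That score is observed fitness minus the product of the single-drug fitness values, which were inferred from combination data. Fitness itself is OD595 at entry into stationary phase divided by the plate's robust no-drug mean, with a cap at 1.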

B. subtilis 168 [1] = assay: as above
Summary of the method: as §1

S. aureus Newman = assay: as above
Summary of the method: as §1

S. pneumoniae D39V = assay: as above
Summary of the method: as §1

B. subtilis 168 [2] = assay: fitness (endpoint OD595 vs no drug) (fraction); higher = more growth
Summary of the method: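 In 384-well plates at 37 °C, cultures began at OD595 0.01 in 30 µl, with 55 µl used for S. pneumoniae. OD595 readings every 30 min for 14 h were corrected by the first reading. Fitness divides the stationary-phase transition optical density by the robust mean of no-drug control wells. The result is capped at 1.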
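Throughout, for Bliss interaction score (quartile over a dose matrix): first quartile when negative (synergy) and third quartile when positive (antagonism).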

CC[C@H](C)[C@H](N)C1=N[C@H](C(=O)N[C@@H](CC(C)C)C(=O)N[C@H](CCC(=O)O)C(=O)N[C@H](C(=O)N[C@H]2CCCCNC(=O)[C@H](CC(N)=O)NC(=O)[C@@H](CC(=O)O)NC(=O)[C@H](Cc3cnc[nH]3)NC(=O)[C@@H](Cc3ccccc3)NC(=O)[C@H]([C@@H](C)CC)NC(=O)[C@@H](CCCN)NC2=O)[C@@H](C)CC)CS1 [Bacitracin] + CC(=O)NC[C@H]1CN(c2ccc(N3CCOCC3)c(F)c2)C(=O)O1 [Linezolid]
Conditions | Bliss interaction score
B. subtilis 168 [1] | -0.0832
S. aureus DSM 20231 | -0.0504
S. aureus Newman | -0.087
S. pneumoniae D39V | -0.0719

B. subtilis 168 [2], partner 0.0625 µg/mL, one replicate
Conditions | fitness
first compound 37.5 µg/mL | 0.823
first compound 75 µg/mL | 0.749
first compound 150 µg/mL | 0.3

fitness, B. subtilis 168 [2]
Conditions | first compound 37.5 µg/mL | first compound 75 µg/mL | first compound 150 µg/mL
partner 0.125 µg/mL | 0.609 | – | –
partner 0.25 µg/mL | – | 0.13 | 0.0363
partner 0.5 µg/mL | 0.0502 | 0.0304 | 0.0221

CC[C@H](C)[C@H](N)C1=N[C@H](C(=O)N[C@@H](CC(C)C)C(=O)N[C@H](CCC(=O)O)C(=O)N[C@H](C(=O)N[C@H]2CCCCNC(=O)[C@H](CC(N)=O)NC(=O)[C@@H](CC(=O)O)NC(=O)[C@H](Cc3cnc[nH]3)NC(=O)[C@@H](Cc3ccccc3)NC(=O)[C@H]([C@@H](C)CC)NC(=O)[C@@H](CCCN)NC2=O)[C@@H](C)CC)CS1 [Bacitracin] + CCC(C)C1C(=O)NC(=C)C(=O)NC(C(=O)NC(CSCC(C(=O)N1)NC(=O)/C(=C/C)/NC(=O)C(C(C)CC)N)C(=O)NC2C(SCC(NC(=O)CNC(=O)C3CCCN3C2=O)C(=O)NC(CCCCN)C(=O)NC4C(SCC(NC(=O)CNC(=O)C(NC(=O)C(NC(=O)C(NC(=O)CNC4=O)C)CC(C)C)CCSC)C(=O)NC(CC(=O)N)C(=O)NC(CCSC)C(=O)NC(CCCCN)C(=O)NC5C(SCC6C(=O)NC(C(=O)NC(CSC(C(C(=O)N6)NC(=O)C(NC5=O)C)C)C(=O)NC(CO)C(=O)NC(C(C)CC)C(=O)NC(CC7=CN=CN7)C(=O)NC(C(C)C)C(=O)NC(=C)C(=O)NC(CCCCN)C(=O)O)CC8=CN=CN8)C)C)C)CC(C)C [Nisin]
Conditions | Bliss interaction score
B. subtilis 168 [1] | -0.191
S. aureus DSM 20231 | -0.0406
S. aureus Newman | 0.112
S. pneumoniae D39V | -0.0689

fitness, B. subtilis 168 [2]
Conditions | first compound 37.5 µg/mL | first compound 75 µg/mL | first compound 150 µg/mL
partner 0.5 µg/mL | 0.78 | 0.711 | 0.516
partner 1 µg/mL | 0.754 | 0.575 | 0.269
partner 2 µg/mL | 0.473 | 0.165 | 0.0302

fitness, B. subtilis 168 [2], one replicate
Conditions | partner 1.25 µg/mL | partner 1.6 µg/mL | partner 2.5 µg/mL | partner 3.2 µg/mL | partner 4 µg/mL | partner 5 µg/mL | partner 6.4 µg/mL | partner 8 µg/mL | partner 16 µg/mL
first compound 37.5 µg/mL | 0.807 | 0.409 | 0.293 | 0.0184 | 0.0266 | 0.0118 | 0.0283 | 0.0124 | 0.0057
first compound 75 µg/mL | 0.809 | 0.178 | 0.0249 | 0.0153 | 0.116 | 0.0085 | 0.0276 | 0.0348 | 0.0088
first compound 150 µg/mL | 0.611 | 0.0142 | 0.0156 | 0.0131 | 0.0334 | 0.0106 | 0.0205 | 0.0221 | 0.0151

CC[C@H](C)[C@H](N)C1=N[C@H](C(=O)N[C@@H](CC(C)C)C(=O)N[C@H](CCC(=O)O)C(=O)N[C@H](C(=O)N[C@H]2CCCCNC(=O)[C@H](CC(N)=O)NC(=O)[C@@H](CC(=O)O)NC(=O)[C@H](Cc3cnc[nH]3)NC(=O)[C@@H](Cc3ccccc3)NC(=O)[C@H]([C@@H](C)CC)NC(=O)[C@@H](CCCN)NC2=O)[C@@H](C)CC)CS1 [Bacitracin] + CCC[C@@H]1C[C@@H](C(=O)N[C@@H]([C@H]2O[C@H](SC)[C@H](O)[C@@H](O)[C@H]2O)[C@@H](C)O)N(C)C1 [Lincomycin]
Conditions | Bliss interaction score
B. subtilis 168 [1] | 0.0963
S. aureus DSM 20231 | -0.046
S. aureus Newman | 0.104
S. pneumoniae D39V | -0.0546

fitness, B. subtilis 168 [2]
Conditions | first compound 37.5 µg/mL | first compound 75 µg/mL | first compound 150 µg/mL
partner 0.1 µg/mL | 0.955 | 0.915 | 0.896
partner 0.2 µg/mL | 0.919 | 0.832 | 0.733
partner 0.4 µg/mL | 0.86 | 0.827 | –

fitness, B. subtilis 168 [2], one replicate
Conditions | first compound 37.5 µg/mL | first compound 75 µg/mL | first compound 150 µg/mL
partner 0.8 µg/mL | 0.764 | 0.74 | 0.389
partner 1.6 µg/mL | 0.769 | 0.686 | 0.439

CC[C@H](C)[C@H](N)C1=N[C@H](C(=O)N[C@@H](CC(C)C)C(=O)N[C@H](CCC(=O)O)C(=O)N[C@H](C(=O)N[C@H]2CCCCNC(=O)[C@H](CC(N)=O)NC(=O)[C@@H](CC(=O)O)NC(=O)[C@H](Cc3cnc[nH]3)NC(=O)[C@@H](Cc3ccccc3)NC(=O)[C@H]([C@@H](C)CC)NC(=O)[C@@H](CCCN)NC2=O)[C@@H](C)CC)CS1 [Bacitracin] + CN(C)C(=O)C(CCN1CCC(O)(c2ccc(Cl)cc2)CC1)(c1ccccc1)c1ccccc1 [Loperamide]
Conditions | Bliss interaction score
B. subtilis 168 [1] | -0.13
S. aureus DSM 20231 | -0.0677
S. aureus Newman | -0.0942
S. pneumoniae D39V | 0.1

fitness, B. subtilis 168 [2]
Conditions | first compound 37.5 µg/mL | first compound 75 µg/mL | first compound 150 µg/mL
partner 25 µg/mL | 0.598 | – | –
partner 50 µg/mL | – | 0.0219 | 0.0315
partner 100 µg/mL | 0.0325 | 0.0281 | 0.0237

CC[C@H](C)[C@H](N)C1=N[C@H](C(=O)N[C@@H](CC(C)C)C(=O)N[C@H](CCC(=O)O)C(=O)N[C@H](C(=O)N[C@H]2CCCCNC(=O)[C@H](CC(N)=O)NC(=O)[C@@H](CC(=O)O)NC(=O)[C@H](Cc3cnc[nH]3)NC(=O)[C@@H](Cc3ccccc3)NC(=O)[C@H]([C@@H](C)CC)NC(=O)[C@@H](CCCN)NC2=O)[C@@H](C)CC)CS1 [Bacitracin] + CO[C@@H]1[C@@H](OC(N)=O)[C@@H](O)[C@H](Oc2ccc3c(O)c(NC(=O)c4ccc(O)c(CC=C(C)C)c4)c(=O)oc3c2C)OC1(C)C [Novobiocin]
Conditions | Bliss interaction score
B. subtilis 168 [1] | 0.126
S. aureus DSM 20231 | -0.0399
S. aureus Newman | -0.0809
S. pneumoniae D39V | 0.0678

fitness, B. subtilis 168 [2]
Conditions | first compound 37.5 µg/mL | first compound 75 µg/mL | first compound 150 µg/mL
partner 0.0125 µg/mL | ≥ 1 | 0.97 | 0.946
partner 0.025 µg/mL | 0.988 | ≥ 1 | 0.941
partner 0.05 µg/mL | ≥ 1 | 0.964 | 0.935

fitness, B. subtilis 168 [2], one replicate
Conditions | partner 0.1 µg/mL | partner 0.125 µg/mL | partner 0.2 µg/mL | partner 0.25 µg/mL | partner 0.5 µg/mL
first compound 37.5 µg/mL | 0.817 | 0.917 | 0.861 | 0.894 | 0.431
first compound 75 µg/mL | 0.763 | 0.959 | 0.804 | 0.922 | 0.293
first compound 150 µg/mL | 0.534 | 0.861 | 0.63 | 0.559 | 0.164

CC[C@H](C)[C@H](N)C1=N[C@H](C(=O)N[C@@H](CC(C)C)C(=O)N[C@H](CCC(=O)O)C(=O)N[C@H](C(=O)N[C@H]2CCCCNC(=O)[C@H](CC(N)=O)NC(=O)[C@@H](CC(=O)O)NC(=O)[C@H](Cc3cnc[nH]3)NC(=O)[C@@H](Cc3ccccc3)NC(=O)[C@H]([C@@H](C)CC)NC(=O)[C@@H](CCCN)NC2=O)[C@@H](C)CC)CS1 [Bacitracin] + COc1cc(Cc2cnc(N)nc2N)cc(OC)c1OC [Trimethoprim]
Conditions | Bliss interaction score
B. subtilis 168 [1] | 0.0858
S. aureus DSM 20231 | 0.013
S. aureus Newman | -0.08
S. pneumoniae D39V | -0.0391

fitness, B. subtilis 168 [2], one replicate
Conditions | partner 0.1 µg/mL | partner 0.2 µg/mL | partner 0.4 µg/mL | partner 1 µg/mL | partner 2 µg/mL
first compound 37.5 µg/mL | 0.925 | 0.65 | 0.508 | 0.462 | 0.24
first compound 75 µg/mL | 0.898 | 0.715 | 0.532 | 0.441 | 0.235
first compound 150 µg/mL | 0.875 | 0.71 | 0.499 | 0.348 | 0.219

fitness, B. subtilis 168 [2]
Conditions | first compound 37.5 µg/mL | first compound 75 µg/mL | first compound 150 µg/mL
partner 0.125 µg/mL | 0.615 | 0.593 | 0.338
partner 0.5 µg/mL | 0.518 | – | –

CC[C@H](C)[C@H](N)C1=N[C@H](C(=O)N[C@@H](CC(C)C)C(=O)N[C@H](CCC(=O)O)C(=O)N[C@H](C(=O)N[C@H]2CCCCNC(=O)[C@H](CC(N)=O)NC(=O)[C@@H](CC(=O)O)NC(=O)[C@H](Cc3cnc[nH]3)NC(=O)[C@@H](Cc3ccccc3)NC(=O)[C@H]([C@@H](C)CC)NC(=O)[C@@H](CCCN)NC2=O)[C@@H](C)CC)CS1 [Bacitracin] + C[C@H]1COc2c(N3CCN(C)CC3)c(F)cc3c(=O)c(C(=O)O)cn1c23 [Levofloxacin]
Conditions | Bliss interaction score
B. subtilis 168 [1] | 0.0288
S. aureus DSM 20231 | 0.034
S. aureus Newman | -0.043
S. pneumoniae D39V | -0.072

fitness, B. subtilis 168 [2], one replicate
Conditions | first compound 37.5 µg/mL | first compound 75 µg/mL | first compound 150 µg/mL
partner 0.001 µg/mL | 0.94 | 0.969 | 0.728
partner 0.0078 µg/mL | 0.842 | 0.844 | 0.439

fitness, B. subtilis 168 [2]
Conditions | partner 0.002 µg/mL | partner 0.0039 µg/mL | partner 0.0312 µg/mL | partner 0.0625 µg/mL | partner 0.125 µg/mL
first compound 37.5 µg/mL | 0.812 | 0.851 | 0.0268 | 0.0345 | 0.0392
first compound 75 µg/mL | 0.851 | 0.818 | 0.0206 | 0.0236 | 0.0256
first compound 150 µg/mL | 0.527 | 0.55 | 0.0178 | 0.0214 | 0.0173
